Laboratory results: PubChem BioAssay (NCI)
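A five-concentration, 48-hour dose response in 96-well plates underlies each endpoint, interpolated linearly between surrounding concentrations. The concentration for full growth arrest is given as TGI.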

The compounds below were run on MCF7 breast (assay: NCI anticancer screen, dose series, 48 h).

Compound	TGI
N#C[C@H](c1ccccn1)c1nc2ccccc2nc1Cl	> 100 µM
Cc1c(C)c2c(c(N)c1C#N)C(=O)N(NC(=O)c1ccccc1)C2=O	> 100 µM
O=C1COc2cccnc2N1CCCCO	> 100 µM
CC(=O)OC(OC(C)=O)c1ccc2ccc3cccc4ccc1c2c34	79.1 µM

Each compound was assayed on HOP-92 NSCLC (assay: NCI anticancer screen, dose series, 48 h).

Compound	TGI
O=C1C=CC(=O)c2c1ccc1c3ccccc3n(CCCCCn3c4ccccc4c4ccc5c(c43)C(=O)C=CC5=O)c21	35.6 µM
C=C(Cl)C(=CCl)CCC(Br)C(C)(C)Cl (mixture of isomers)	> 10 µM
O=C1C2SC34c5c2c2ccccc2n5CCC3CCCN14 (stereo unspecified)	> 100 µM
CC(=O)N(C(C)=O)c1ncc(-n2nc(-c3ccccc3)cc2-c2ccccc2)c(-c2ccccc2)n1	> 10 µM
CN1C(=O)c2ccccc2OC12C=Cc1c(ccc3ccccc13)O2 (stereo unspecified)	8.47 µM
CC(=O)Nc1sc(Br)cc1S(=O)(=O)c1ccc(Cl)cc1	59.5 µM
O=C1Sc2cc3ccccc3cc2C(=O)Sc2ccc(Br)cc21	20.9 µM
O=C(/C=C/c1ccccc1)Oc1cccc(O)c1	> 100 µM
CC(C)NC(=O)OCc1c(COC(=O)NC(C)C)c(-c2cc[n+](COC(=O)C3CC3)cc2)n2c1CCC2	> 100 µM
COC(=O)C1=C(C(=O)OC)N(c2ccc(OC)cc2[N+](=O)[O-])C(c2ccc(C)cc2)=CC1c1ccc(OC)cc1OC (stereo unspecified)	> 100 µM
O=c1[nH]nnc2c1sc1ncccc12	> 100 µM
Cc1ccc(C2SCC(=O)N2c2ccc(-n3c(-c4ccccc4)nc4ccccc4c3=O)cc2)cc1 (stereo unspecified)	51.6 µM
C/C=C/C(CC(O)(C(F)(F)F)C(F)(F)F)=N/NC(N)=S	> 10 µM
Fc1ccc2c(c1)nc1n2C(c2c(Cl)cccc2Cl)SC1 (stereo unspecified)	20 µM
CC(C)C1=CC23CCC4C(C)(C(=O)O)CCCC4(C)C2CC1C1C(=O)N(c2ccc(Cc4ccc(N5C(=O)C6C7CC8C9(C)CCCC(C)(C(=O)O)C9CCC8(C=C7C(C)C)C6C5=O)cc4)cc2)C(=O)C13 (stereo unspecified)	36.8 µM
NC(N)=NS(=O)(=O)c1ccc(NNc2c3ccccc3nc3c(C(=O)Nc4ccc(S(=O)(=O)Nc5ncccn5)cc4)cccc23)cc1	> 100 µM
CCOC1(OCC)C2C=CC1C(COS(=O)(=O)c1ccc(C)cc1)C2COS(=O)(=O)c1ccc(C)cc1 (stereo unspecified)	48 µM
Cc1[nH]c(=O)nc2nc3ccc(Cl)cc3c(NCCNCCO)c12	24.2 µM
CC(C)(C)OC(=O)NC1CCCCC1NC(=O)C(=O)NC1CCCCC1NC(=O)OC(C)(C)C (stereo unspecified)	45 µM
COc1cc(C2c3cc4c(cc3OC(N3CCCCC3)C2C)OCO4)cc(OC)c1O (stereo unspecified)	37.3 µM
N#C[C@H](c1ccccn1)c1nc2ccccc2nc1Cl	> 100 µM
Cc1c(C)c2c(c(N)c1C#N)C(=O)N(NC(=O)c1ccccc1)C2=O	> 100 µM
O=C1COc2cccnc2N1CCCCO	> 100 µM
CC(=O)OC(OC(C)=O)c1ccc2ccc3cccc4ccc1c2c34	42.3 µM

These compounds were tested on MALME-3M melanoma (assay: NCI anticancer screen, dose series, 48 h).

Compound	TGI
O=C1C=CC(=O)c2c1ccc1c3ccccc3n(CCCCCn3c4ccccc4c4ccc5c(c43)C(=O)C=CC5=O)c21	31.9 µM
C=C(Cl)C(=CCl)CCC(Br)C(C)(C)Cl (mixture of isomers)	> 10 µM
O=C1C2SC34c5c2c2ccccc2n5CCC3CCCN14 (stereo unspecified)	> 100 µM
CC(=O)N(C(C)=O)c1ncc(-n2nc(-c3ccccc3)cc2-c2ccccc2)c(-c2ccccc2)n1	> 10 µM
CN1C(=O)c2ccccc2OC12C=Cc1c(ccc3ccccc13)O2 (stereo unspecified)	15.6 µM
CC(=O)Nc1sc(Br)cc1S(=O)(=O)c1ccc(Cl)cc1	> 100 µM
O=C1Sc2cc3ccccc3cc2C(=O)Sc2ccc(Br)cc21	26.5 µM
O=C(/C=C/c1ccccc1)Oc1cccc(O)c1	> 100 µM
CC(C)NC(=O)OCc1c(COC(=O)NC(C)C)c(-c2cc[n+](COC(=O)C3CC3)cc2)n2c1CCC2	> 100 µM
COC(=O)C1=C(C(=O)OC)N(c2ccc(OC)cc2[N+](=O)[O-])C(c2ccc(C)cc2)=CC1c1ccc(OC)cc1OC (stereo unspecified)	> 77.4 µM
O=c1[nH]nnc2c1sc1ncccc12	> 100 µM
Cc1ccc(C2SCC(=O)N2c2ccc(-n3c(-c4ccccc4)nc4ccccc4c3=O)cc2)cc1 (stereo unspecified)	73 µM
C/C=C/C(CC(O)(C(F)(F)F)C(F)(F)F)=N/NC(N)=S	> 10 µM
Fc1ccc2c(c1)nc1n2C(c2c(Cl)cccc2Cl)SC1 (stereo unspecified)	25.6 µM
CC(C)C1=CC23CCC4C(C)(C(=O)O)CCCC4(C)C2CC1C1C(=O)N(c2ccc(Cc4ccc(N5C(=O)C6C7CC8C9(C)CCCC(C)(C(=O)O)C9CCC8(C=C7C(C)C)C6C5=O)cc4)cc2)C(=O)C13 (stereo unspecified)	30.4 µM
NC(N)=NS(=O)(=O)c1ccc(NNc2c3ccccc3nc3c(C(=O)Nc4ccc(S(=O)(=O)Nc5ncccn5)cc4)cccc23)cc1	67.8 µM
CCOC1(OCC)C2C=CC1C(COS(=O)(=O)c1ccc(C)cc1)C2COS(=O)(=O)c1ccc(C)cc1 (stereo unspecified)	77.1 µM
Cc1[nH]c(=O)nc2nc3ccc(Cl)cc3c(NCCNCCO)c12	28.5 µM
CC(C)(C)OC(=O)NC1CCCCC1NC(=O)C(=O)NC1CCCCC1NC(=O)OC(C)(C)C (stereo unspecified)	> 100 µM
COc1cc(C2c3cc4c(cc3OC(N3CCCCC3)C2C)OCO4)cc(OC)c1O (stereo unspecified)	16.8 µM
N#C[C@H](c1ccccn1)c1nc2ccccc2nc1Cl	> 100 µM
Cc1c(C)c2c(c(N)c1C#N)C(=O)N(NC(=O)c1ccccc1)C2=O	> 100 µM
CC(=O)OC(OC(C)=O)c1ccc2ccc3cccc4ccc1c2c34	54.7 µM

Each compound was assayed on HL-60(TB) leukemia (assay: NCI anticancer screen, dose series, 48 h).

Compound	TGI
O=C1C=CC(=O)c2c1ccc1c3ccccc3n(CCCCCn3c4ccccc4c4ccc5c(c43)C(=O)C=CC5=O)c21	3.23 µM
C=C(Cl)C(=CCl)CCC(Br)C(C)(C)Cl (mixture of isomers)	> 10 µM
O=C1C2SC34c5c2c2ccccc2n5CCC3CCCN14 (stereo unspecified)	> 100 µM
CC(=O)N(C(C)=O)c1ncc(-n2nc(-c3ccccc3)cc2-c2ccccc2)c(-c2ccccc2)n1	> 10 µM
CN1C(=O)c2ccccc2OC12C=Cc1c(ccc3ccccc13)O2 (stereo unspecified)	17.6 µM
CC(=O)Nc1sc(Br)cc1S(=O)(=O)c1ccc(Cl)cc1	63.4 µM
O=C1Sc2cc3ccccc3cc2C(=O)Sc2ccc(Br)cc21	> 100 µM
O=C(/C=C/c1ccccc1)Oc1cccc(O)c1	41.2 µM
CC(C)NC(=O)OCc1c(COC(=O)NC(C)C)c(-c2cc[n+](COC(=O)C3CC3)cc2)n2c1CCC2	> 100 µM
COC(=O)C1=C(C(=O)OC)N(c2ccc(OC)cc2[N+](=O)[O-])C(c2ccc(C)cc2)=CC1c1ccc(OC)cc1OC (stereo unspecified)	> 44.3 µM
O=c1[nH]nnc2c1sc1ncccc12	> 100 µM
Cc1ccc(C2SCC(=O)N2c2ccc(-n3c(-c4ccccc4)nc4ccccc4c3=O)cc2)cc1 (stereo unspecified)	64.4 µM
C/C=C/C(CC(O)(C(F)(F)F)C(F)(F)F)=N/NC(N)=S	> 10 µM
Fc1ccc2c(c1)nc1n2C(c2c(Cl)cccc2Cl)SC1 (stereo unspecified)	62.3 µM
CC(C)C1=CC23CCC4C(C)(C(=O)O)CCCC4(C)C2CC1C1C(=O)N(c2ccc(Cc4ccc(N5C(=O)C6C7CC8C9(C)CCCC(C)(C(=O)O)C9CCC8(C=C7C(C)C)C6C5=O)cc4)cc2)C(=O)C13 (stereo unspecified)	63.2 µM
NC(N)=NS(=O)(=O)c1ccc(NNc2c3ccccc3nc3c(C(=O)Nc4ccc(S(=O)(=O)Nc5ncccn5)cc4)cccc23)cc1	> 100 µM
CCOC1(OCC)C2C=CC1C(COS(=O)(=O)c1ccc(C)cc1)C2COS(=O)(=O)c1ccc(C)cc1 (stereo unspecified)	42.4 µM
Cc1[nH]c(=O)nc2nc3ccc(Cl)cc3c(NCCNCCO)c12	> 100 µM
CC(C)(C)OC(=O)NC1CCCCC1NC(=O)C(=O)NC1CCCCC1NC(=O)OC(C)(C)C (stereo unspecified)	> 100 µM
COc1cc(C2c3cc4c(cc3OC(N3CCCCC3)C2C)OCO4)cc(OC)c1O (stereo unspecified)	15.4 µM
N#C[C@H](c1ccccn1)c1nc2ccccc2nc1Cl	> 100 µM
Cc1c(C)c2c(c(N)c1C#N)C(=O)N(NC(=O)c1ccccc1)C2=O	> 100 µM
O=C1COc2cccnc2N1CCCCO	> 100 µM
CC(=O)OC(OC(C)=O)c1ccc2ccc3cccc4ccc1c2c34	> 100 µM

Each compound was assayed on K-562 leukemia (assay: NCI anticancer screen, dose series, 48 h).

Compound	TGI
O=C1C=CC(=O)c2c1ccc1c3ccccc3n(CCCCCn3c4ccccc4c4ccc5c(c43)C(=O)C=CC5=O)c21	4.89 µM
C=C(Cl)C(=CCl)CCC(Br)C(C)(C)Cl (mixture of isomers)	> 10 µM
O=C1C2SC34c5c2c2ccccc2n5CCC3CCCN14 (stereo unspecified)	> 100 µM
CC(=O)N(C(C)=O)c1ncc(-n2nc(-c3ccccc3)cc2-c2ccccc2)c(-c2ccccc2)n1	> 10 µM
CN1C(=O)c2ccccc2OC12C=Cc1c(ccc3ccccc13)O2 (stereo unspecified)	> 31.5 µM
CC(=O)Nc1sc(Br)cc1S(=O)(=O)c1ccc(Cl)cc1	78.3 µM
O=C1Sc2cc3ccccc3cc2C(=O)Sc2ccc(Br)cc21	19.2 µM
CC(C)NC(=O)OCc1c(COC(=O)NC(C)C)c(-c2cc[n+](COC(=O)C3CC3)cc2)n2c1CCC2	> 100 µM
COC(=O)C1=C(C(=O)OC)N(c2ccc(OC)cc2[N+](=O)[O-])C(c2ccc(C)cc2)=CC1c1ccc(OC)cc1OC (stereo unspecified)	> 54.4 µM
O=c1[nH]nnc2c1sc1ncccc12	> 100 µM
Cc1ccc(C2SCC(=O)N2c2ccc(-n3c(-c4ccccc4)nc4ccccc4c3=O)cc2)cc1 (stereo unspecified)	> 100 µM
C/C=C/C(CC(O)(C(F)(F)F)C(F)(F)F)=N/NC(N)=S	> 10 µM
CC(C)C1=CC23CCC4C(C)(C(=O)O)CCCC4(C)C2CC1C1C(=O)N(c2ccc(Cc4ccc(N5C(=O)C6C7CC8C9(C)CCCC(C)(C(=O)O)C9CCC8(C=C7C(C)C)C6C5=O)cc4)cc2)C(=O)C13 (stereo unspecified)	> 100 µM
NC(N)=NS(=O)(=O)c1ccc(NNc2c3ccccc3nc3c(C(=O)Nc4ccc(S(=O)(=O)Nc5ncccn5)cc4)cccc23)cc1	> 100 µM
CCOC1(OCC)C2C=CC1C(COS(=O)(=O)c1ccc(C)cc1)C2COS(=O)(=O)c1ccc(C)cc1 (stereo unspecified)	> 100 µM
Cc1[nH]c(=O)nc2nc3ccc(Cl)cc3c(NCCNCCO)c12	> 100 µM
CC(C)(C)OC(=O)NC1CCCCC1NC(=O)C(=O)NC1CCCCC1NC(=O)OC(C)(C)C (stereo unspecified)	> 100 µM
COc1cc(C2c3cc4c(cc3OC(N3CCCCC3)C2C)OCO4)cc(OC)c1O (stereo unspecified)	> 100 µM
Cc1c(C)c2c(c(N)c1C#N)C(=O)N(NC(=O)c1ccccc1)C2=O	> 100 µM
CC(=O)OC(OC(C)=O)c1ccc2ccc3cccc4ccc1c2c34	96.2 µM

The compounds below were run on COLO 205 colon (assay: NCI anticancer screen, dose series, 48 h).

Compound	TGI
O=C1C=CC(=O)c2c1ccc1c3ccccc3n(CCCCCn3c4ccccc4c4ccc5c(c43)C(=O)C=CC5=O)c21	34.9 µM
C=C(Cl)C(=CCl)CCC(Br)C(C)(C)Cl (mixture of isomers)	> 10 µM
O=C1C2SC34c5c2c2ccccc2n5CCC3CCCN14 (stereo unspecified)	> 100 µM
CC(=O)N(C(C)=O)c1ncc(-n2nc(-c3ccccc3)cc2-c2ccccc2)c(-c2ccccc2)n1	> 10 µM
CN1C(=O)c2ccccc2OC12C=Cc1c(ccc3ccccc13)O2 (stereo unspecified)	10.8 µM
O=C1Sc2cc3ccccc3cc2C(=O)Sc2ccc(Br)cc21	34.9 µM
O=C(/C=C/c1ccccc1)Oc1cccc(O)c1	> 100 µM
CC(C)NC(=O)OCc1c(COC(=O)NC(C)C)c(-c2cc[n+](COC(=O)C3CC3)cc2)n2c1CCC2	> 100 µM
COC(=O)C1=C(C(=O)OC)N(c2ccc(OC)cc2[N+](=O)[O-])C(c2ccc(C)cc2)=CC1c1ccc(OC)cc1OC (stereo unspecified)	20.8 µM
O=c1[nH]nnc2c1sc1ncccc12	> 100 µM
Cc1ccc(C2SCC(=O)N2c2ccc(-n3c(-c4ccccc4)nc4ccccc4c3=O)cc2)cc1 (stereo unspecified)	> 100 µM
C/C=C/C(CC(O)(C(F)(F)F)C(F)(F)F)=N/NC(N)=S	> 10 µM
Fc1ccc2c(c1)nc1n2C(c2c(Cl)cccc2Cl)SC1 (stereo unspecified)	32.9 µM
CC(C)C1=CC23CCC4C(C)(C(=O)O)CCCC4(C)C2CC1C1C(=O)N(c2ccc(Cc4ccc(N5C(=O)C6C7CC8C9(C)CCCC(C)(C(=O)O)C9CCC8(C=C7C(C)C)C6C5=O)cc4)cc2)C(=O)C13 (stereo unspecified)	26.4 µM
NC(N)=NS(=O)(=O)c1ccc(NNc2c3ccccc3nc3c(C(=O)Nc4ccc(S(=O)(=O)Nc5ncccn5)cc4)cccc23)cc1	> 100 µM
CCOC1(OCC)C2C=CC1C(COS(=O)(=O)c1ccc(C)cc1)C2COS(=O)(=O)c1ccc(C)cc1 (stereo unspecified)	50.7 µM
Cc1[nH]c(=O)nc2nc3ccc(Cl)cc3c(NCCNCCO)c12	21.6 µM
CC(C)(C)OC(=O)NC1CCCCC1NC(=O)C(=O)NC1CCCCC1NC(=O)OC(C)(C)C (stereo unspecified)	> 100 µM
COc1cc(C2c3cc4c(cc3OC(N3CCCCC3)C2C)OCO4)cc(OC)c1O (stereo unspecified)	38.6 µM
N#C[C@H](c1ccccn1)c1nc2ccccc2nc1Cl	> 100 µM
Cc1c(C)c2c(c(N)c1C#N)C(=O)N(NC(=O)c1ccccc1)C2=O	> 100 µM
